The source made the active and inactive calls. The rule behind the calls is not given here.
Target: X-box-binding protein 1 (Homo sapiens) (UniProt P17861)
Assay: XBP1 reporter suppression in cells – counter-screen, dose response (AID 504313);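 note: CHO cells carrying an XBP1 reporter stimulated with tunicamycin; potency is for inhibition of the tunicamycin-induced reporter signal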
Details: XBP1 reporter cell assay, percent of control

Compound | IC50
O=C1CC(c2cccc(Cl)c2)CC(O)=C1C=Nc1cccc(Cl)c1 (stereo not given) | > 10 µM (inactive)
CNc1ccc2oc(C[C@H]3O[C@@]4(CC[C@H]3C)O[C@H]([C@H](C)C(=O)c3ccc[nH]3)[C@H](C)C[C@H]4C)nc2c1C(=O)O | 1.41 µM
O=C(/C=C/c1cccc([N+](=O)[O-])c1)n1cnc2ccccc21 | inactive
Cc1ccc(N2C(=O)NC(=O)/C(=C\C=C\c3ccco3)C2=O)cc1 | inactive
O=C1NC(=S)S/C1=C\C=C\c1ccc([N+](=O)[O-])o1 | inactive
CC1(c2ccccc2)CC(C)(C)N2C(=O)/C(=C3\SC(=S)NC3=O)c3cccc1c32 (stereo not given) | inactive
O=C(OCC(F)(F)F)c1cccc(COc2ccc3ccccc3c2)c1 | 0.98 µM
OC(CNCC(c1ccc(Cl)cc1Cl)c1c[nH]c2ccccc12)c1ccccc1 (stereo not given) | inactive
CCCOC(=O)c1ccc(Oc2c(-c3ccc(OCC)cc3O)n[nH]c2C)cc1 | inactive
CCOc1cc(/C=C\[N+](=O)[O-])ccc1OCC(=O)Nc1ccccc1C | 4.59 µM
COc1ccc(-c2nn(-c3ccccc3)cc2/C=N/N2C(=O)CSC2=S)cc1 | > 10 µM (inactive)
Cc1cccc(Nc2nc(N)c([N+](=O)[O-])c(N3CC(C)CC(C)C3)n2)c1 (stereo not given) | inactive
NS(=O)(=O)c1ccc(N/N=C2/CCCCC2C2CCCCC2)c([N+](=O)[O-])c1 (stereo not given) | 4.48 µM
C=C(C)COc1ccc(-c2[nH]ncc2Oc2ccccc2OCC)c(O)c1 | inactive
C=C(C)C(=O)OC1(C(F)(F)F)Oc2cc(C)ccc2NC1=O (stereo not given) | inactive
CC(C)C[C@H](NC(=O)c1nc[nH]c1C(=O)NCC(=O)OC(C)(C)C)C(=O)OCc1ccccc1 | inactive
CCCOc1ccc(Cc2c(Cl)nc(SC)nc2NC)cc1 | > 10 µM (inactive)
COc1ccc(C(=O)NC(=O)Nc2cc(C)ccn2)cc1 | inactive
O=S(=O)(NC1CC1)c1ccc(S(=O)(=O)N2CCCC3(CCCCC3)C2)cc1 | inactive
CCOC(=O)c1nc(S(C)(=O)=O)ncc1Cl | inactive
CCCCn1c(/N=C/c2c[nH]c3ccccc23)nc2ccccc21 | > 10 µM (inactive)
O=C1c2ccccc2C(=O)c2c1oc(C(F)(F)F)c2C(=O)c1ccccc1 | inactive
CC(C)C[C@H](NC(=O)OC(C)(C)C)c1nnc(SCC(=O)Nc2ccc(Br)cc2)o1 | 4.92 µM
C=CCn1c(CCNC(=O)c2ccc(Cl)c(Cl)c2)nnc1SCCOc1ccc(OC)cc1 | > 10 µM (inactive)
CCSc1nc2ccccc2n1C(=O)/C=C/c1ccc(OC)c(OC)c1 | 4.84 µM

Compound | IC50
Cc1cc(C(=O)COC(=O)c2ccccc2O)c(C)n1Cc1cccs1 | < 0.16 µM (inactive)
S=c1[nH]nc(C2CCCCC2)n1/N=C/C=C/c1ccccc1 | > 10 µM (inactive)
Cc1ccc(C(C(=O)NCc2ccco2)N(C(=O)CNC(=O)c2cccs2)c2c(C)cccc2C)cc1 (stereo not given) | > 10 µM (inactive)
O=C1/C(=C/c2ccncc2)SC(=S)N1C1CCS(=O)(=O)C1 (stereo not given) | inactive
CCn1cc([N+](=O)[O-])c(C(=O)N2N=C(c3ccc(Cl)c(Cl)c3)CC2c2ccccc2O)n1 (stereo not given) | > 10 µM (inactive)
C=C(C)COc1ccc(-c2n[nH]c(C)c2Oc2ccccc2OC)c(O)c1 | inactive
O=C(N/N=C/c1ccc(F)cc1)c1c(O)c2ccccc2[nH]c1=O | > 10 µM (inactive)
Cc1ccc(NC(=O)c2nc[nH]c2C(=O)N[C@@H](C)C(=O)OC(C)(C)C)cc1 | 4.14 µM
Cc1cccc(/C=C/C(=O)c2cc(Br)ccc(=O)c2O)c1 | > 10 µM (inactive)
C=C(C(=O)c1ccccc1)C(C)C(=C)C(=O)c1ccccc1 | inactive
CC(C)(C)c1ccc(OCCNC(=S)Nc2ccccc2)cc1 | inactive
CCCCS(=O)(=O)/C=C\C=C/S(=O)(=O)CCCC | 2.68 µM
COc1ccc(/C=C2\SC(=S)N(CCCC(=O)Nc3ccc(O)cc3)C2=O)cc1 | < 0.16 µM
Cc1ccc(C(=O)Nc2cnc3ccccc3c2)cc1 | 4.09 µM
O=C(OCn1ncc(Br)c(Br)c1=O)c1c(F)cccc1F | 3.06 µM
Oc1ccc(Br)cc1-c1cc(-c2ccccc2F)[nH]n1 | > 10 µM (inactive)
Nc1c(C(=O)Nc2ccccc2F)sc2nc(-c3cccnc3)ccc12 | > 10 µM (inactive)
CCOC(=O)c1c(/N=C/c2c(O)n(-c3cccc(C)c3)c(=O)[nH]c2=O)sc2c1CCCC2 | 0.53 µM
Oc1ccc(Cl)cc1-c1cc(-c2ccccc2)n[nH]1 | > 10 µM (inactive)
C[C@H](NC(=O)c1[nH]cnc1C(=O)Nc1ccc(Cl)cc1)C(=O)OC(C)(C)C | inactive
O=[N+]([O-])c1c(NCCCO)cc(Sc2ccc(Cl)cc2)c2nonc12 | inactive
COc1ccccc1-n1cc([C@@H]2C[C@H]3CN(c4ccccc4)C(=O)[C@]34CCCN24)cn1 | 0.74 µM
O=[N+]([O-])c1c(NCCCO)cc(Sc2nc3ccccc3s2)c2nonc12 | inactive
O=C(Nc1ccccc1)C1=C(c2ccccc2)S(=O)(=O)CCS1(=O)=O | inactive
CC(C)=CCCC1(C)C=Cc2c(c(C)cc3c2[nH]c2cc(O)ccc23)O1 (stereo not given) | inactive

Compound | IC50
COC(=O)C(O)(c1ccc(NC(=S)NC(=O)c2ccc(Cl)cc2Cl)c(C)c1)C(F)(F)F (stereo not given) | > 10 µM (inactive)
O=C(NC(Nc1nc2ccc([N+](=O)[O-])cc2s1)(C(F)(F)F)C(F)(F)F)c1ccccc1Cl | 0.34 µM
Cc1nc(Nc2nc(CSc3nc4ccccc4[nH]3)cc(=O)[nH]2)nc2ccccc12 | > 10 µM (inactive)
Cc1nn(CCC#N)c2nc(-c3ccccc3)cc(C(F)(F)F)c12 | inactive
O=C1CC(c2ccccc2)CC(O)=C1C=Nc1cccc(Cl)c1 (stereo not given) | > 10 µM (inactive)
N#CC(C#N)=C1C=CC=CN1/C(=C\c1ccccc1Cl)C(=O)c1ccccc1 | inactive
CCCC(=O)NC(NC(=S)Nc1ccc(N=Nc2ccccc2)cc1)C(Cl)(Cl)Cl (stereo not given) | > 10 µM (inactive)
C=CCn1c(O)c(C(CC)=Nc2ccc(N(CC)CC)cc2)c(=O)[nH]c1=O | inactive
O=C(NCc1nc(-c2ccc(C(F)(F)F)cc2)no1)Nc1cc(Cl)cc(Cl)c1 | inactive
Cc1ccc(-c2nn(-c3ccccc3)cc2/C=N/NC(=O)c2ccc(Br)o2)cc1 | inactive
CC(C)c1ccc(-c2cc(C(=O)N3N=C(C(F)F)CC3(O)C(F)F)c3ccccc3n2)cc1 (stereo not given) | 5.02 µM
Cc1ccccc1N1CCN(C(=O)c2ccc(Oc3ccc(C(F)(F)F)cn3)cc2)CC1 | 2.48 µM
CCc1ccc2[nH]c(=O)c(C(c3nnnn3Cc3ccco3)N3CCC(C)CC3)cc2c1 (stereo not given) | > 10 µM (inactive)
CCOc1ccc(C2C=C(c3ccc(C)cc3)Nc3nnnn32)cc1 (stereo not given) | > 10 µM (inactive)
CC1CCc2cc(F)ccc2N1C(=O)CSc1nnc2c(n1)[nH]c1ccc(F)cc12 (stereo not given) | > 10 µM (inactive)
Cc1ccc(NC(=O)NC(=O)CN2C(=O)NC3(CCCCCCC3)C2=O)c(C)c1 | > 10 µM (inactive)
Nc1c(S(=O)(=O)c2cccc(Cl)c2)c2nc3ccccc3nc2n1/N=C/c1ccc(O)c(O)c1 | > 10 µM (inactive)
O=C(CCl)N(c1ccc(Cl)cc1)c1c[nH]c2ccccc12 | inactive
CN(C)c1ccc(C(CNS(=O)(=O)c2ccc(F)c(F)c2)c2c[nH]c3ccccc23)cc1 (stereo not given) | inactive
CCCCCCn1c(-c2ccco2)nc2oc3cc(OC)ccc3c(=O)c2c1=O | > 10 µM (inactive)
CCc1ccc(/C=c2\s/c(=C\C(=O)C(C)(C)C)[nH]c2=O)cc1 | inactive
COc1ccc(Cc2nc3ccccc3n2CC(=O)N/N=C/c2ccc(C)cc2O)cc1OC | > 10 µM (inactive)
CC1=NN(c2nc(-c3ccc(C)cc3)cs2)C(=O)C1N=Nc1ccccc1O (stereo not given) | inactive
N#C/C(=C\c1ccc([N+](=O)[O-])o1)c1nc2ccccc2[nH]1 | 4.83 µM
O=C(CNC1CCCCCC1)Nc1ccccc1N1CCCCC1 | inactive

Compound | IC50
CC1=C(C)/C(=N\OS(=O)(=O)c2ccc(C)cc2)C=CC1=O | 1.63 µM
COCCCn1c(N)c(C(=O)NCCC(C)C)c2nc3ccccc3nc21 | > 10 µM (inactive)
CCCCc1nc2ccccc2c(=O)n1NC(=O)c1c(O)c2ccccc2n(C)c1=O | > 10 µM (inactive)
NC(=O)c1cc(-c2ccccc2)nc(N2CCCCCC2)n1 | inactive
CCCCCCn1c(CN2CCCC(C)C2)nc2c1c(=O)n(C)c(=O)n2C (stereo not given) | > 10 µM (inactive)
O=C(Nc1ccccc1Cl)c1ccccc1Oc1ccc(C(F)(F)F)cc1[N+](=O)[O-] | inactive
O=C1CC(Sc2nnnn2-c2ccccc2)C(=O)N1c1cccc(Cl)c1 (stereo not given) | > 10 µM (inactive)
COc1ccc(OCc2cccc(C(=O)O)c2)cc1 | 0.4 µM
O=C1C(=C2SCCCS2)CC/C1=C\c1ccc(F)cc1 | 3.13 µM
O=Cc1s/c(=N\S(=O)(=O)c2ccccc2)n(CCCCl)c1Cl | inactive
CCOC(=O)c1cnc(-n2nc(C)cc2C)nc1NC1CCCCC1 | inactive
C#CC(=O)N(c1cccc(OC)c1)C(C(=O)NC1CCCC1)c1cccs1 (stereo not given) | inactive
CCCCCCn1c(CN2CCN(Cc3ccccc3)CC2)nc2c1c(=O)n(C)c(=O)n2C | > 10 µM (inactive)
Cc1ccc(N=Cc2cc3c(cc2O)OC(N)=C(C#N)C3c2ccccc2)cc1 (stereo not given) | > 10 µM (inactive)
Nc1cc(Cl)c2nonc2c1[N+](=O)[O-] | inactive
O=C1C(Nc2ccccc2)=C/C(=N/S(=O)(=O)c2cccs2)c2ccccc21 | 1.17 µM
COC(=O)/C=C\C(=O)Nc1cccc([N+](=O)[O-])c1 | > 10 µM (inactive)
CCCCCCCCCCCCCCCC[n+]1ccc(/C=N/O)cc1 | inactive
CCCCCCOC(=O)Nc1ccc(S(=O)(=O)Nc2cccc([N+](=O)[O-])c2)cc1 | > 10 µM (inactive)
COc1ccc(C(=O)Nc2nnc(-c3ccco3)s2)cc1 | inactive
CCOc1cc(NC(=O)CCl)c(OCC)cc1NC(=O)CCl | > 10 µM (inactive)
CCc1ccc(OCCNC(=O)c2ccccc2SCc2ccccc2)cc1 | > 10 µM (inactive)
CC1CCC(n2c(=S)[nH]c3ccccc3c2=O)CC1 (stereo not given) | > 10 µM (inactive)
CC[n+]1c(/C=C2\Sc3ccccc3N2C)ccc2cccc(C)c21 | 0.24 µM
COc1ccc(NC(=O)c2cc3cccc(OC)c3oc2=Nc2ccc(C(=O)O)cc2)cc1OC | inactive
